Experiments:
[1] = system: P. humanus capitis adults and nymphs; test: filter paper diffusion bioassay, pediculicidal activity; conditions: mean individual louse survival time, in vitro pediculicidal treatment
Text: Adults, nymphs, and nits of P. humanus capitis were collected from a population of children between the ages of 3 and 12, with the approval of their guardians, by raking a metal louse comb through sections of the scalp. Adult and nymph lice as well as nits (eggs) were obtained and pooled by carefully removing them from the metal teeth of the comb into clean plastic boxes. The children had not been treated with any pediculicide solution for at least the preceding month, using only the louse comb.
For testing the pediculicidal activity, a filter paper diffusion bioassay was made with adults and nymphs of the insect collected from heads no more than 4 hours before carrying out the assay. After careful selection under a dissecting microscope, 10 lice in a ratio of 8:2 adult:nymph III were placed on a filter paper disk (Whatman No 1; 9-cm diameter) on the lid of a Petri dish. Next, 0.5 ml of either (a) each test solution; (b) distilled water with Tween-20 (control); and (c) distilled water, Tween-20, and preserving agents (excipient control), were spread over the lice and filter paper for each group. The commercial lotions (containing tea tree oil and permethrin as chief active components) (0.5 ml) were simultaneously run as a positive controls. Three to nine replicates were conducted for each treatment. […] The number of dead lice were recorded for each dish.

[2] = system: Sarcoptes scabiei nits; test: ovicidal activity against scabies eggs (hatching rate)
Experimental: To determine the ovicidal activity of Manuka oil and its fraction, dilutions to 2.5% and 5% were made in olive oil. […] Six independent experiments were conducted on separate days.

Structure (SMILES)	Mean survival time [1] [min]	Percentage inhibition, Day 4 ([2]; Day 4) [%]	Percentage inhibition, Day 8 ([2]; Day 8) [%]	ovicidal activity (in words) ([2]; nymph emergence, Table 2)
CC1(C)C(C=C(Cl)Cl)C1C(=O)OCc1cccc(Oc2ccccc2)c1 (stereo not shown) [Permethrin, permethrin]	56.4			
CC[C@H](C)[C@H]1O[C@]2(CC[C@@H]1C)C[C@@H]1C[C@@H](C/C=C(\C)[C@@H](O[C@H]3C[C@H](OC)[C@@H](O[C@H]4C[C@H](OC)[C@@H](O)[C@H](C)O4)[C@H](C)O3)[C@@H](C)/C=C/C=C3\CO[C@@H]4[C@H](O)C(C)=C[C@@H](C(=O)O1)[C@]34O)O2 [Ivermectin (100 μ/μL), ivermectin]		12.4 ± 5.0	9.8 ± 4.8	poor ovicidal activity

From US20190160016A1, “Anti-Parasitic Compositions and Methods” (University of Canberra, priority 2016, published 2019)
